Holding throughout (test): DTP human tumour cell line panel, 48 h
Experiment [1] deals with NCI-H460.
The test system of experiment [2] is COLO 205.
For experiment [3], the system named is OVCAR-8.
Experiment [4] relates to RXF 393.
The test system of experiment [5] is SNB-19.
Experiment [6] relates to UO-31.
Experiment [7] deals with SF-268.
Experiment [8] has as its system U-251.
Experiment [9] concerns MOLT-4.
Experiment [10] deals with HL-60.
Experiment [11] deals with NCI-H23.
Experiment [12] deals with IGROV-1.
The subject of experiment [13] is UACC-62.
Experiment [14] relates to EKVX.
Experiment [15] deals with LOX IMVI.
The subject of experiment [16] is K562.
The test system of experiment [17] is A549.
The test system of experiment [18] is OVCAR-5.
For experiment [19], the system named is HCT-15.
Experiment [20] deals with SN12C.

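1) Cells in 96-well plates. 2) Compound, 48 h, 5 concentrations. 3) Linear interpolation between surrounding doses. 4) Unreached endpoint = highest concentration. Here, GI50 denotes the concentration required for 50% inhibition of growth.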 Activity calls are given as the source filed them. Rule as the data show it: active = GI50 up to about 1.1 µM and inactive = higher.

As to `CCCCCCc1ccc(O)cc1O` [HEXYLRESORCINOL], the GI50 was 58.3 µM (inactive) in [1]; > 100 µM (inactive) in [2]; > 69 µM (inactive) in experiment [3]; > 75.2 µM (inactive) in [4]; 43.7 µM (inactive) in [5]; 24.4 µM (inactive) in experiment [6]. Further, the GI50 in [7] is 87.3 µM (inactive); in [8], 40.4 µM (inactive); in experiment [9] it was 22.9 µM (inactive); in experiment [10] it was 30.8 µM (inactive); in experiment [11], 47.3 µM (inactive); in [12], 45.5 µM (inactive). The GI50 in [13] is 34.4 µM (inactive); in [14] it was > 64.7 µM (inactive); in [15] it was > 100 µM (inactive); in [16] it was 44.8 µM (inactive); in [17], 40.6 µM (inactive); in experiment [18], > 65.6 µM (inactive). Further, the GI50 in [19] is 59.8 µM; in [20], 66.4 µM (inactive).
`O=C1CNC(=O)N1` [HYDANTOIN]: the GI50 in experiment [1], in experiment [2], in experiment [3], in [4], in experiment [5] and in [6] was > 1120 µM (inactive) each time. Also, the GI50 in experiment [7], in [8], in [9], in experiment [10], in [11] and in [12] was > 1120 µM (inactive) each time. Also, the GI50 in experiment [13] was > 1120 µM (inactive); in [14], > 1120 µM (inactive); in experiment [15] it was > 1120 µM (inactive); in [16], 706 µM (inactive); in experiment [17], > 1120 µM (inactive); in experiment [18], > 1120 µM (inactive). For the same compound, the concentration for 50% growth inhibition (GI50) in experiment [19] was greater than 1120 µM; in experiment [20], > 1120 µM (inactive).

The record behind these values is ChEMBL document CHEMBL1201862, “PubChem BioAssay data set” (2004).
